Results as given in patent US9963463B2, “Urea-substituted indanes as P38 map kinase inhibitors” (TORRENT PHARMACEUTICALS LIMITED, priority 2014, dated 2018).

Columns and labels:
[1] = test system: cigarette smoke induced Neutrophil accumulation in BAL Fluid; assay: Acute mouse model of airway inflammation (tobacco smoke), BAL neutrophils; type: in vivo; conditions: mice, aerosol exposure 25 minutes; for Neutrophil (*10^3 cells/animal): BAL fluid, Mean ± SEM; for % Inhibition: neutrophil vs vehicle group
From the text: In vivo efficacy evaluation of compounds in animal model of airway inflammation: The tobacco smoke induced airway inflammation model is used for in-vivo efficacy of compound. Many investigators have used acute tobacco smoke (TS) exposure in rodents as models of airway inflammation for quick screening of anti-inflammatory therapies (J Pharmacol Exp Ther. 2008; 324(3):921-9; J Pharmacol Exp Ther. 2010; 332(3):764-75; Journal of Inflammation 2013, 10(Suppl 1):31 and Eur Respir J Suppl 2006; 663s:3850).
A: Efficacy Studies in Acute Mouse Model of Airway Inflammation
Mice were exposed to tobacco smoke (TS) in an acrylic chamber. Animals were exposed to TS from 8, 12, 16 cigarettes on day 1, day 2, day 3 respectively. From day 4 onwards till day 11, animals were exposed to TS from 20 cigarettes per day. Like human COPD associated inflammation, acute exposure of mice to TS induced significant inflammatory cell, predominantly neutrophil recruitment to lungs as compared to air exposed control mice (BALF neutrophil levels, nil in air control group vs 178±29.1*10^3 cells/animal in smoke exposed vehicle group).
Lung delivery of test compound was achieved by whole body aerosol exposure for 25 minutes in a chamber. Mice were divided in different dose groups and exposed in a chamber for 25 minutes with vehicle or Compound 12 (0.3 mg/ml) or Compound 12 (3 mg/ml). A total quantity of 3.5 ml of either vehicle or test compound formulation was nebulized in a chambers to respective groups over 25 mins period. Test compounds were administered 2 hr prior to TS exposure from day 6 to day 11. Bronchoalveolar lavage (BAL) was performed 24 hr post last TS exposure.
Trachea of animal was cannulated using catheter. Phosphate Buffer Saline (PBS) was used as lavage fluid. A volume of 0.5 ml was gently instilled and withdrawn and collected in microcentrifuge tube placed on ice. This procedure was repeated further 2 times.
Lavage fluid was separated from cells by centrifugation and supernatant separated. The cell pallet was resuspended in known volume of PBS. Cells in aliquot were stained using Turk solution and total cell numbers were calculated by counting Turk stained aliquot under microscope using haemocytometer.
The residual cell suspension was resuspended and slides prepared using cyto centrifuge technique (Cytospin 4, Thermo Shandon). The slides were then fixed with methanol, air dried and stained with May Grunwald Giemsa stain. Up to 300 cells were counted and differentiated using standard morphometric techniques under light microscopy.
All results are presented at individual data for each animal and mean value calculated for each group. Percentage inhibition for the neutrophil was calculated for Compound 12 treatment group against vehicle group. Results are summarized herein below: […]

[2] = target: T1, purified recombinant human p38 alpha MAPK (Homo sapiens, UniProt Q16539); assay: Inhibition of p38 alpha MAPK activity, TR-FRET kinase assay; type: biochemical; conditions: Concentration 1 μM; read-out: P38α Inhibition
T1 construct: purchased Millipore, USA
Outline: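 Recombinant human p38α preincubated 15 min at RT with compound (0.5–1.0% DMSO), then 30 nM biotinylated GST-ATF2 and 100 μM ATP added for 60 min at RT. Stopped with EDTA; Eu-anti-phospho-ATF2 and APC-streptavidin detection, 60 min. % inhibition from 665/615 nm TR-FRET ratio.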

T1 sequence (Q16539 whole entry): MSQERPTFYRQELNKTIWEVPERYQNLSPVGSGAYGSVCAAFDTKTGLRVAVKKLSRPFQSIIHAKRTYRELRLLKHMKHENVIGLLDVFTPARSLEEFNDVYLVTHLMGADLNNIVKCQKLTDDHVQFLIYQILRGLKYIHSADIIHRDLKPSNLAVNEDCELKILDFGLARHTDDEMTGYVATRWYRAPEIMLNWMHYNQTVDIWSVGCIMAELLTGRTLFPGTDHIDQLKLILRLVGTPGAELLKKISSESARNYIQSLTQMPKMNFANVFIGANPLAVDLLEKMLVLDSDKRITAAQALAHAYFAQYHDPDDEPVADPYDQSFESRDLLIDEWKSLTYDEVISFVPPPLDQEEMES

inhibition at 1 µM [2] | Structure (SMILES) | also measured
80 to 100% | Cc1ccc(-n2nc(C(C)(C)C)cc2NC(=O)Nc2ccc(OCCN3CCN(CC4CC4)C(=O)C3)c3c2CCC3)cc1 [Compound 12, 1-[3-tert-butyl-1-(4-methylphenyl)-1H-pyrazol-5-yl]-3-(7-{2-[4-(cyclopropylmethyl)-3-oxopiperazin-1-yl]ethoxy}-2,3-dihydro-1H-inden-4-yl)urea] | Neutrophil (*10^3 cells/animal) ([1]; formulation strength 0.3 mg/ml): 107 ± 18.5 *10^3 cells/animal; Neutrophil (*10^3 cells/animal) ([1]; formulation strength 3 mg/ml): 69.6 ± 11.1 *10^3 cells/animal; % Inhibition ([1]; formulation strength 0.3 mg/ml): 40%; % Inhibition ([1]; formulation strength 3 mg/ml): 61%
80 to 100% | Cc1ccc(-n2nc(C(C)(C)C)cc2NC(=O)Nc2ccc(OCCN3CCn4c(nnc4-c4cccc(O)c4)C3)c3c2CCC3)cc1 [Compound 36, 1-[3-tert-butyl-1-(4-methylphenyl)-1H-pyrazol-5-yl]-3-(7-{2-[3-(3-hydroxyphenyl)-5,6-dihydro[1,2,4]triazolo[4,3-a]pyrazin-7(8H)-yl]ethoxy}-2,3-dihydro-1H-inden-4-yl)urea] | –
60 to 80% | CC(C)(C)c1cc(NC(=O)Nc2ccc(OCCN3CCN(CC4CC4)C(=O)C3)c3c2CCC3)n(-c2ccccc2)n1 [Compound 61, 1-(3-tert-butyl-1-phenyl-1H-pyrazol-5-yl)-3-(7-{2-[4-(cyclopropylmethyl)-3-oxopiperazin-1-yl]ethoxy}-2,3-dihydro-1H-inden-4-yl)urea] | –
80 to 100% | CSc1ccccc1-c1nnc2n1CCN(C(=O)COc1ccc(NC(=O)Nc3cc(C(C)(C)C)nn3-c3ccc(C)cc3)c3c1CCC3)C2 [Compound 10, 1-[3-tert-butyl-1-(4-methylphenyl)-1H-pyrazol-5-yl]-3-[7-(2-{3-[2-(methylsulfanyl)phenyl]-5,6-dihydro[1,2,4]triazolo[4,3-a]pyrazin-7(8H)-yl}-2-oxoethoxy)-2,3-dihydro-1H-inden-4-yl]urea] | –
80 to 100% | Cc1ccc(-n2nc(C(C)(C)C)cc2NC(=O)Nc2ccc(OCCN3CCn4c(nnc4-c4ccc(O)cc4)C3)c3c2CCC3)cc1 [Compound 34, 1-[3-tert-butyl-1-(4-methylphenyl)-1H-pyrazol-5-yl]-3-(7-{2-[3-(4-hydroxyphenyl)-5,6-dihydro[1,2,4]triazolo[4,3-a]pyrazin-7(8H)-yl]ethoxy}-2,3-dihydro-1H-inden-4-yl)urea] | –
60 to 80% | COc1c(NC(=O)Nc2ccc(OCCN3CCn4c(nnc4-c4cccc5ccccc45)C3)c3c2CCC3)cc(C(C)(C)C)cc1NS(C)(=O)=O [Compound 74, N-(5-tert-butyl-2-methoxy-3-{[(7-{2-[3-(naphthalen-1-yl)-5,6-dihydro[1,2,4]triazolo[4,3-a]pyrazin-7(8H)-yl]ethoxy}-2,3-dihydro-1H-inden-4-yl)carbamoyl]amino}phenyl)methanesulfonamide] | –
40 to 60% | Cc1ccc(-n2nc(C(C)(C)C)cc2NC(=O)Nc2ccc(OCCN3CCn4c(nnc4C4CCCCC4)C3)c3c2CCC3)cc1 [Compound 68, 1-[3-tert-butyl-1-(4-methylphenyl)-1H-pyrazol-5-yl]-3-{7-[2-(3-cyclohexyl-5,6-dihydro[1,2,4]triazolo[4,3-a]pyrazin-7(8H)-yl)ethoxy]-2,3-dihydro-1H-inden-4-yl}urea] | –
80 to 100% | CCS(=O)(=O)Nc1cc(C(C)(C)C)cc(NC(=O)Nc2ccc(OCCN3CCn4c(nnc4-c4cc(Cl)ccc4O)C3)c3c2CCC3)c1OC [Compound 51, N-(5-tert-butyl-3-{[(7-{2-[3-(5-chloro-2-hydroxyphenyl)-5,6-dihydro[1,2,4]triazolo[4,3-a]pyrazin-7(8H)-yl]ethoxy}-2,3-dihydro-1H-inden-4-yl)carbamoyl]amino}-2-methoxyphenyl)ethanesulfonamide] | –
80 to 100% | CCCSc1ccccc1-c1nnc2n1CCN(CCOc1ccc(NC(=O)Nc3cc(C(C)(C)C)nn3-c3ccc(C)cc3)c3c1CCC3)C2 [Compound 33, 1-[3-tert-butyl-1-(4-methylphenyl)-1H-pyrazol-5-yl]-3-[7-(2-{3-[2-(propylsulfanyl)phenyl]-5,6-dihydro[1,2,4]triazolo[4,3-a]pyrazin-7(8H)-yl}ethoxy)-2,3-dihydro-1H-inden-4-yl]urea] | –
80 to 100% | COc1ccccc1-c1nnc2n1CCN(C(=O)COc1ccc(NC(=O)Nc3cc(C(C)(C)C)nn3-c3ccc(O)c(Cl)c3)c3c1CCC3)C2 [Compound 8, 1-[3-tert-butyl-1-(3-chloro-4-hydroxyphenyl)-1H-pyrazol-5-yl]-3-(7-{2-[3-(2-methoxyphenyl)-5,6-dihydro[1,2,4]triazolo[4,3-a]pyrazin-7(8H)-yl]-2-oxoethoxy}-2,3-dihydro-1H-inden-4-yl)urea] | –
80 to 100% | COc1ccccc1-c1nnc2n1CCN(C(=O)COc1ccc(NC(=O)Nc3cc(C(C)(C)C)nn3-c3ccccc3)c3c1CCC3)C2 [Compound 5, 1-(3-tert-butyl-1-phenyl-1H-pyrazol-5-yl)-3-(7-{2-[3-(2-methoxyphenyl)-5,6-dihydro[1,2,4]triazolo[4,3-a]pyrazin-7(8H)-yl]-2-oxoethoxy}-2,3-dihydro-1H-inden-4-yl)urea] | –
